Assay: Photostability: xenon arc weathering of chromophore solutions, LCMS analysis
Type: physicochemical
Conditions: for Ketone (%) / Minus-2HF (%) / Minus-HF (%) / Sulfone (%) / Chromophore Remaining (%): xenon arc, 82° C. bp; for Ketone (%) / Minus-2HF (%) / Minus-HF (%) / Sulfone (%): linearly interpolated to 0.5 MJ/m2 @ 340 nm; for Chromophore Remaining (%): linearly interpolated to 0.5 MJ/m2 @ 340 nm of exposure energy; for Photostability (in words): weathering experiments
Method in brief: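 Chromophores were dissolved at 1 to 10 wt % in Rhodiasolv IRIS at 90° C, then sealed under glovebox conditions in glass cells laminated with 400 nm UV-cutoff PVB. The cells were weathered continuously in a xenon arc chamber with no dark or spray cycles. Solutions were then diluted in acetonitrile and analysed by reverse-phase LC-MS.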

[1] = 10 wt %, interpolated to 0.5 MJ/m^2 of energy exposure at 340 nm
[2] = 3 wt %, interpolated to 0.5 MJ/m^2 of energy exposure at 340 nm
[3] = 1 wt %, interpolated to 0.5 MJ/m^2 of energy exposure at 340 nm

| SMILES | Ketone (%) (10 wt % in Rhodiasolv IRIS) | Minus-2HF (%) (10 wt % in Rhodiasolv IRIS) | Minus-HF (%) (10 wt % in Rhodiasolv IRIS) | Sulfone (%) (10 wt % in Rhodiasolv IRIS) | Chromophore Remaining (%) (10 wt % in Rhodiasolv IRIS) | Ratio of chromophore remaining relative to S340 [1] | Photostability (in words) | Ketone (%) (3 wt % in Rhodiasolv IRIS) | Minus-2HF (%) (3 wt % in Rhodiasolv IRIS) | Minus-HF (%) (3 wt % in Rhodiasolv IRIS) | Sulfone (%) (3 wt % in Rhodiasolv IRIS) | Chromophore Remaining (%) (3 wt % in Rhodiasolv IRIS) | Ratio of chromophore remaining relative to S340 [2] | other results |
| --- | --- | --- | --- | --- | --- | --- | --- | --- | --- | --- | --- | --- | --- | --- |
| COCCCOc1cc2oc(-c3ccc(C(C)(C)C)cc3)c(C3=C(c4cc(-c5cc6c(s5)C(C)(C)CCC6(C)C)sc4-c4cc5c(s4)C(C)(C)CCC5(C)C)C(F)(F)C(F)(F)C3(F)F)c2cc1OCCCOC [Chromophore S388, 3-(2-(2,5-bis(4,4,7,7-tetramethyl-4,5,6,7-tetrahydrobenzo[b]thiophen-2-yl)thiophen-3-yl)-3,3,4,4,5,5-hexafluorocyclopent-1-en-1-yl)-2-(4-(tert-butyl)phenyl)-5,6-bis(3-methoxypropoxy)benzofuran] | 0.2 | 0.0 | 0.0 | 0.4 | 97.7 | 1.07 | high photostability | – | – | – | – | – | – | Formation of the Minus-HF degradation product (in words): prevents the Minus-HF product |
| CC(C)(C)c1ccc(-c2oc3cc(OCCN4CCOC4=O)c(OCCN4CCOC4=O)cc3c2C2=C(c3cc(-c4cc5c(s4)C(C)(C)CCC5(C)C)sc3-c3cc4c(s3)C(C)(C)CCC4(C)C)C(F)(F)C(F)(F)C2(F)F)cc1 [Chromophore S390, 3,3′-(((3-(2-(2,5-bis(4,4,7,7-tetramethyl-4,5,6,7-tetrahydrobenzo[b]thiophen-2-yl)thiophen-3-yl)-3,3,4,4,5,5-hexafluorocyclopent-1-en-1-yl)-2-(4-(tert-butyl)phenyl)benzofuran-5,6-diyl)bis(oxy))bis(ethane-2,1-diyl))bis(oxazolidin-2-one)] | 0.0 | 0.0 | 0.0 | 0.0 | 98.8 | 1.08 | high photostability | – | – | – | – | – | – | – |
| CC(=O)Oc1cc2oc(-c3ccc(C(C)(C)C)cc3)c(C3=C(c4cc(-c5cc(C(C)(C)C)cs5)sc4-c4cc(C(C)(C)C)cs4)C(F)(F)C(F)(F)C3(F)F)c2cc1OC(C)=O [Chromophore S396, 2-(4-(tert-butyl)phenyl)-3-(2-(4,4″-di-tert-butyl-[2,2′:5′,2″-terthiophen]-3′-yl)-3,3,4,4,5,5-hexafluorocyclopent-1-en-1-yl)benzofuran-5,6-diyl diacetate] | – | – | – | – | – | – | high photostability | 1.0 | 0.0 | 0.0 | 0.0 | 97.9 | 1.07 | – |
| COc1ccc2oc(-c3ccc(C(C)(C)C)cc3)c(C3=C(c4cc(-c5cc6c(s5)C(C)(C)CCC6(C)C)sc4-c4cc5c(s4)C(C)(C)CCC5(C)C)C(F)(F)C(F)(F)C3(F)F)c2c1 [Chromophore S400] | – | – | – | – | – | – | high photostability | 0.8 | 1.4 | 0.0 | 0.0 | 96.7 | 1.06 | – |
| COc1cc2oc(-c3ccc(C(C)(C)C)cc3)c(C3=C(c4cc(-c5cc6c(s5)C(C)(C)CCCC6(C)C)sc4-c4cc5c(s4)C(C)(C)CCCC5(C)C)C(F)(F)C(F)(F)C3(F)F)c2cc1OC [Chromophore S405] | – | – | – | – | – | – | high photostability | – | – | – | – | – | – | Ketone (%) (1 wt % in Rhodiasolv IRIS): 2.9%; Minus-2HF (%) (1 wt % in Rhodiasolv IRIS): 0.0%; Minus-HF (%) (1 wt % in Rhodiasolv IRIS): 0.0%; Sulfone (%) (1 wt % in Rhodiasolv IRIS): 0.0%; Chromophore Remaining (%) (1 wt % in Rhodiasolv IRIS): 97.1%; Ratio of chromophore remaining relative to S340 [3]: 1.07; Sum of degradation product percentages relative to the sum of degradation product percentages for S340 [3]: 0.33 |

Source: patent US20220220100A1 (SOLUTIA CANADA INC., priority 2019, published 2022)
